TGI and GI50 data for nine compounds are collected here from PubChem BioAssay (NCI).

Assay in all cases: DTP human tumour cell line panel, 48 h
Assay [1] concerns RXF 393 renal.
Assay [2] relates to HL-60(TB) leukemia.
Assay [3] relates to SNB-75 CNS.
The test system of assay [4] is MDA-MB-231 breast.
The test system of assay [5] is NCI/ADR-RES ovarian.
For assay [6], the system named is TK-10 renal.
For assay [7], the system named is BT-549 breast.
Assay [8] relates to NCI-H226 lung.
For assay [9], the system named is EKVX NSCLC.
The subject of assay [10] is UO-31 renal.

Structures are written as SMILES.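 Growth conditions: 96-well plates. Treatment: test compound, 48 hours, 5 concentrations. Analysis: linear interpolation between bracketing concentrations; unreached endpoints set to highest concentration. GI50 is the concentration that inhibits growth by half. TGI: concentration producing complete growth inhibition.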

Broadly, the TGI is the concentration giving total growth inhibition. Read a low TGI as more potent growth arrest. In the case of `NCCOc1ccccn1`, the TGI in assay [1], in [2], in assay [3], in assay [4], in [5] and in assay [6] was more than 100 µM throughout. In addition, the TGI in assay [7], in assay [8], in assay [9] and in assay [10] was more than 100 µM in each case.
With `CC(=O)Nc1ccc(C(=O)N[C@@H]2C(=O)N3[C@@H]2SC(C)(C)[C@@H]3C(=O)O)cn1`, the TGI in assay [1], in [2], in assay [3], in assay [4], in [5] and in assay [6] was more than 100 µM throughout. The TGI in assay [7], in assay [8], in assay [9] and in assay [10] was more than 100 µM each time.
In general, GI50 refers to the concentration giving 50% growth inhibition. Consider `Cn1cccc1-c1cc(-c2ccc(Br)cc2)nc(N)c1C#N`, for which the GI50 in [1] is 30.3 µM; in assay [2], 0.413 µM; in assay [3], 22.2 µM; in [4], 69.9 µM; in [5], more than 100 µM; in [6] it was more than 100 µM. Also, the GI50 was 69.7 µM in assay [7], 63.8 µM in assay [8], more than 100 µM in assay [9] and more than 100 µM in [10]. The TGI is more than 100 µM in assay [1]; more than 100 µM in assay [2]; 84.3 µM in assay [3]; more than 100 µM in [4]; more than 100 µM in assay [5]; more than 100 µM in assay [6]. For the same compound, the total growth inhibition concentration (TGI) in [7], in assay [8], in assay [9] and in assay [10] was more than 100 µM throughout.
Consider `CC(C)(C)c1ccc(-c2nnc(SCc3ccc(Cl)cc3)n2-c2cccc(C(F)(F)F)c2)cc1`, for which the TGI in assay [1] was more than 100 µM; in [2], 14.6 µM; in assay [3] it was more than 94.1 µM; in assay [4], more than 100 µM; in assay [5], more than 100 µM; in assay [6] it was more than 100 µM. For the same compound, the TGI in assay [7] is more than 100 µM; in [8], 97.3 µM; in assay [9], 81.9 µM; in assay [10], 34.2 µM.
`COC(=O)c1ccc2c(c1)nc(-c1ccc(Cl)cc1)n2-c1cc(C(C)(C)C)[nH]n1`: the GI50 is 1.57 µM in [1]; 4.03 µM in [2]; 2.14 µM in [3]; 4.62 µM in assay [4]; 2.72 µM in [5]; 6.94 µM in assay [6]. Also, the GI50 in assay [7] is 3.35 µM; in assay [8] it was 4.09 µM; in assay [9] it was 3.06 µM; in [10] it was 3.35 µM. Besides, the TGI in assay [1] was 5.77 µM; in [2] it was 19 µM; in assay [3], 12.6 µM; in [4], 27 µM; in assay [5] it was 7.35 µM; in [6] it was more than 100 µM. The TGI in [7] is 11.5 µM; in [8], 44 µM; in assay [9] it was more than 100 µM; in [10] it was 44.1 µM.
As for `COc1cc2c(/C=C3\C(=O)Nc4ccc(Br)cc43)c(Cl)n(C)c2cc1C`, the GI50 in assay [1] is 1.71 µM; in [2] it was 3.09 µM; in [3] it was 1.82 µM; in assay [4], 2.63 µM; in assay [5], 0.799 µM; in assay [6], 2.72 µM. In addition, the GI50 in [7] was 1.49 µM; in assay [8], 1.88 µM; in assay [9] it was 3.76 µM; in [10] it was 2.46 µM. For the same compound, the total growth inhibition concentration (TGI) in assay [1] was 7.33 µM; in [2] it was 16.9 µM; in assay [3] it was more than 25.7 µM; in assay [4] it was 10.5 µM; in assay [5], 3.41 µM; in [6], 9.19 µM. For the same compound, the TGI came to 4.77 µM in assay [7], 6.18 µM in assay [8], 34.1 µM in assay [9] and 11.3 µM in assay [10].
Turning to `CCN1C(=O)N(c2c(F)c(OC)cc(OC)c2F)Cc2cnc3[nH]c(CN4CCOCC4)cc3c21`, the GI50 was 0.394 µM in assay [1]; 3.05 µM in assay [2]; 1.13 µM in assay [3]; 3.06 µM in assay [4]; 4.48 µM in assay [5]; 0.0491 µM in assay [7]. Also, the figures for the GI50 in assay [8], in [9] and in assay [10] were 0.8 µM, 9.49 µM and 0.878 µM, respectively. For the same compound, the TGI in assay [1] is 8.08 µM; in assay [2] it was more than 100 µM; in assay [3], 26.5 µM; in assay [4], 39.3 µM; in [5], more than 100 µM; in assay [7], 15.7 µM. In addition, the TGI in [8], in assay [9] and in [10] was more than 100 µM each time.
On to `CN(C)CCn1cc(-c2ccc3c(Nc4ccc(CC(=O)Nc5cccc(F)c5)cc4)ncnc3c2)cn1`, for which the GI50 in assay [1] is 1.35 µM; in [2], 1.95 µM; in assay [3] it was 0.0472 µM; in assay [4] it was 1.55 µM; in [5] it was more than 10 µM; in [6] it was 1.62 µM. The GI50 in assay [7] was 4.78 µM; in assay [8], more than 10 µM; in assay [9] it was 5.89 µM; in [10] it was 5.67 µM. The TGI is 2.84 µM in [1]; 4.85 µM in assay [2]; more than 10 µM in [3]; 3.35 µM in assay [4]; more than 10 µM in assay [5]; 4.21 µM in [6]. The TGI in assay [7], in [8], in [9] and in assay [10] was more than 10 µM in each case.
Take `O=c1c2ccccc2nc(-c2ccc(Cl)cc2)n1O`: the total growth inhibition concentration (TGI) was more than 100 µM in assay [1]; 65 µM in assay [2]; more than 100 µM in [3]; more than 100 µM in assay [4]; 58.2 µM in [5]; 88 µM in assay [6]. Further, the total growth inhibition concentration (TGI) in [7] was more than 100 µM; in assay [8], more than 100 µM; in assay [9] it was 77.9 µM; in assay [10], 5.79 µM.
